Laboratory results taken from US9682013B2, “Pharmaceutical compositions comprising human antibodies to PCSK9” (SANOFI BIOTECHNOLOGY, priority 2011, dated 2017).

Columns and labels:
[1] = test system: patients with an elevated low-density lipoprotein cholesterol (LDL-C) (≧100 mg/dL or 2.59 mmol/L); experiment: Study 1: randomized, double-blind, placebo-controlled 12-week study of antibody 316P on stable atorvastatin; type: in vivo, human; details: for Cholesterol, Week 12 % change from baseline, Mean / Cholesterol, Week 12 % change from baseline, Median / Cholesterol, Week 12, Mean / Cholesterol, Week 12, Median / Cholesterol, Week 12 change from baseline, Mean / Cholesterol, Week 12 change from baseline, Median / LDL Cholesterol, Week 12—% change from baseline, Mean / LDL Cholesterol, Week 12—% change from baseline, Median / Non-HDL Cholesterol, Week 12 % change from baseline, Mean / Non-HDL Cholesterol, Week 12 % change from baseline, Median / LS mean difference vs. placebo in percent change from baseline in LDL-C at 12 weeks: on stable atorvastatin
Procedure: This was a multicenter, randomized, double-blind, parallel-group, placebo-controlled, 12-week study to assess the efficacy and safety of antibody 316P in patients with an elevated low-density lipoprotein cholesterol (LDL-C) (≧100 mg/dL or 2.59 mmol/L), when treated with atorvastatin (10 mg, 20 mg, or 40 mg) at a stable dose for at least 6 weeks. The randomization was stratified by the dose of atorvastatin received prior to randomization. After the double-blind period patients were followed during an 8-week follow-up period. The primary objective of the study was to evaluate the effect of antibody 316P on LDL-C levels after 12 weeks of treatment in comparison with placebo in patients with LDL-C (≧100 mg/dL or 2.59 mmol/L) on ongoing stable atorvastatin therapy.
The following doses/dose regimens were evaluated: 50 mg, 100 mg and 150 mg every 2 weeks (E2W), 200 mg and 300 mg every 4 weeks (E4W) in comparison with placebo.
Present study comprised a total of 122 patients (20 in placebo, 19 in 50 mg E2W group, 20 in 100 mg E2W group, 20 in 150 mg E2W group, 22 in 200 mg E4W group, and 21 in 300 mg E4W group).
Inclusion criteria: • Patients (patients receiving a lipid lowering treatment other than atorvastatin/or not at stable dose of atorvastatin 10 mg, 20 mg or 40 mg for at least 6 weeks prior to screening period or drug naïve patients) with primary hypercholesterolemia likely to have low-density lipoprotein cholesterol (LDL-C)≧100 mg/dL (≧2.59 mmol/L) at the end of the run-in period on atorvastatin therapy (Week-1). • OR • Patients with primary hypercholesterolemia treated with atorvastatin at stable dose of 10 mg, 20 mg, or 40 mg for at least 6 weeks prior to screening period and likely to have LDL-C≧100 mg/dL (≧2.59 mmol/L) at the screening visit Week-1. […]

male Syrian hamster = experiment: Study 4: cholesterol lowering effect of 316P alone and with atorvastatin in hamster; type: in vivo
Description: This is an animal study on the cholesterol lowering effect of 316P, a fully human PCSK9 blocking monoclonal antibody in male Syrian hamster
The aim of this study was to investigate the effect of 316P, a human monoclonal antibody to human PCSK9, alone and in combination with statins on expression of the hepatic LDLR and the resulting effects on serum LDL-C.
The maximal effect on LDL-C (−17/−27/−60%) was seen within 7 days. PK data of 316P are in line with the dose-dependent effect on LDL-C.

[2] = 12 weeks, all doses/dose regimens
[3] = single s.c. injection 1/3/10 mg/kg

Substance: 316P: fully human anti-PCSK9 antibody comprising a HCVR as shown in SEQ ID NO: 90 and LCVR as shown in SEQ ID NO: 92 [Antibody 316P]
- Cholesterol, Week 12 % change from baseline, Mean ([1]; 50 mg E2W): −24.21%
- Cholesterol, Week 12 % change from baseline, Median ([1]; 50 mg E2W): −23.34%
- Cholesterol, Week 12, Mean ([1]; 50 mg E2W): 3.974 mmol/L
- Cholesterol, Week 12, Median ([1]; 50 mg E2W): 3.937 mmol/L
- Cholesterol, Week 12 change from baseline, Mean ([1]; 50 mg E2W): -1.313 mmol/L
- Cholesterol, Week 12 change from baseline, Median ([1]; 50 mg E2W): -1.399 mmol/L
- LDL Cholesterol, Week 12—% change from baseline, Mean ([1]; 50 mg E2W): −41.06%
- LDL Cholesterol, Week 12—% change from baseline, Median ([1]; 50 mg E2W): −37.04%
- Non-HDL Cholesterol, Week 12 % change from baseline, Mean ([1]; 50 mg E2W): −35.23%
- Non-HDL Cholesterol, Week 12 % change from baseline, Median ([1]; 50 mg E2W): −36.62%
- maintenance of LDL-C decrease observed after the first injection ([1]; 100 mg E2W and 150 mg E2W groups, also throughout the interval period between the injections): maintained throughout the study
- Cholesterol, Week 12 % change from baseline, Mean ([1]; 100 mg E2W): −38.97%
- Cholesterol, Week 12 % change from baseline, Median ([1]; 100 mg E2W): −40.21%
- Cholesterol, Week 12, Mean ([1]; 100 mg E2W): 3.288 mmol/L
- Cholesterol, Week 12, Median ([1]; 100 mg E2W): 3.238 mmol/L
- Cholesterol, Week 12 change from baseline, Mean ([1]; 100 mg E2W): -2.098 mmol/L
- Cholesterol, Week 12 change from baseline, Median ([1]; 100 mg E2W): -2.163 mmol/L
- LDL Cholesterol, Week 12—% change from baseline, Mean ([1]; 100 mg E2W): −63.90%
- LDL Cholesterol, Week 12—% change from baseline, Median ([1]; 100 mg E2W): −64.28%
- LS mean difference vs. placebo in percent change from baseline in LDL-C at 12 weeks ([1]; 100 mg E2W): −58.36%
- Non-HDL Cholesterol, Week 12 % change from baseline, Mean ([1]; 100 mg E2W): −54.78%
- Non-HDL Cholesterol, Week 12 % change from baseline, Median ([1]; 100 mg E2W): −55.91%
- number of patients with LDL-C reduction from baseline >50% at week 12 ([1]; 150 mg E2W group, among 18 patients): 17
- Cholesterol, Week 12 % change from baseline, Mean ([1]; 150 mg E2W): −45.21%
- Cholesterol, Week 12 % change from baseline, Median ([1]; 150 mg E2W): −45.03%
- Cholesterol, Week 12, Mean ([1]; 150 mg E2W): 2.922 mmol/L
- Cholesterol, Week 12, Median ([1]; 150 mg E2W): 2.823 mmol/L
- Cholesterol, Week 12 change from baseline, Mean ([1]; 150 mg E2W): -2.466 mmol/L
- Cholesterol, Week 12 change from baseline, Median ([1]; 150 mg E2W): -2.331 mmol/L
- LDL Cholesterol, Week 12—% change from baseline, Mean ([1]; 150 mg E2W): −72.68%
- LDL Cholesterol, Week 12—% change from baseline, Median ([1]; 150 mg E2W): −74.83%
- LS mean difference vs. placebo in percent change from baseline in LDL-C at 12 weeks ([1]; 150 mg E2W): −68.78%
- Non-HDL Cholesterol, Week 12 % change from baseline, Mean ([1]; 150 mg E2W): −63.71%
- Non-HDL Cholesterol, Week 12 % change from baseline, Median ([1]; 150 mg E2W): −65.94%
- Cholesterol, Week 12 % change from baseline, Mean ([1]; 200 mg E4W): −29.54%
- Cholesterol, Week 12 % change from baseline, Median ([1]; 200 mg E4W): −29.51%
- Cholesterol, Week 12, Mean ([1]; 200 mg E4W): 3.709 mmol/L
- Cholesterol, Week 12, Median ([1]; 200 mg E4W): 3.587 mmol/L
- Cholesterol, Week 12 change from baseline, Mean ([1]; 200 mg E4W): -1.596 mmol/L
- Cholesterol, Week 12 change from baseline, Median ([1]; 200 mg E4W): -1.716 mmol/L
- LDL Cholesterol, Week 12—% change from baseline, Mean ([1]; 200 mg E4W): −47.23%
- LDL Cholesterol, Week 12—% change from baseline, Median ([1]; 200 mg E4W): −49.46%
- LS mean difference vs. placebo in percent change from baseline in LDL-C at 12 weeks ([1]; 200 mg E4W): −42.53%
- Non-HDL Cholesterol, Week 12 % change from baseline, Mean ([1]; 200 mg E4W): −40.07%
- Non-HDL Cholesterol, Week 12 % change from baseline, Median ([1]; 200 mg E4W): −39.91%
- decrease in LDL-C during the interval periods ([1]; 200 mg and 300 mg E4W groups): at least −40%
- Cholesterol, Week 12 % change from baseline, Mean ([1]; 300 mg E4W): −29.61%
- Cholesterol, Week 12 % change from baseline, Median ([1]; 300 mg E4W): −33.48%
- Cholesterol, Week 12, Mean ([1]; 300 mg E4W): 3.778 mmol/L
- Cholesterol, Week 12, Median ([1]; 300 mg E4W): 3.393 mmol/L
- Cholesterol, Week 12 change from baseline, Mean ([1]; 300 mg E4W): -1.638 mmol/L
- Cholesterol, Week 12 change from baseline, Median ([1]; 300 mg E4W): -2.020 mmol/L
- LDL Cholesterol, Week 12—% change from baseline, Median ([1]; 300 mg E4W): −51.98%
- LS mean difference vs. placebo in percent change from baseline in LDL-C at 12 weeks ([1]; 300 mg E4W): −42.26%
- Non-HDL Cholesterol, Week 12 % change from baseline, Mean ([1]; 300 mg E4W): −41.17%
- Non-HDL Cholesterol, Week 12 % change from baseline, Median ([1]; 300 mg E4W): −45.55%
- tolerability ([1]; 12 weeks of treatment, all tested doses/dose regimens): well tolerated
- ApoB [1, 2]: decrease
- Total-C [1, 2]: decrease
- non HDL-C [1, 2]: decrease
- HDL-C ([1]; 12 weeks, all groups): trend of increase
- percent change from baseline in LDL-C at 12 weeks compared to the placebo group ([1]; all groups): Statistically significant decreases
- troponin levels ([1]; all treatment groups): no change
- LDL-C mean values over 12 weeks and LOCF (FIG. 6, words) ([1]; all treatment groups except placebo, whole study period): significant and persistent reduction of LDL-C levels
- LDLR expression (male Syrian hamster; 316P on top of Atorvastatin): increased LDLR expression
- serum LDL-C (male Syrian hamster; 316P on top of Atorvastatin): decreased serum LDL-C
- statin resistance (male Syrian hamster; 316P on top of Atorvastatin): could overcome the statin resistance
- combination treatment compared with single treatment (male Syrian hamster; 316P plus Atorvastatin): more effective than single treatment with 316P alone
- maximal effect on LDL-C (male Syrian hamster; single s.c. injection 1 mg/kg): −17%
- maximal effect on LDL-C (male Syrian hamster; single s.c. injection 3 mg/kg): −27%
- maximal effect on LDL-C (male Syrian hamster; single s.c. injection 10 mg/kg): −60%
- duration of dose-dependent decrease in LDL-C (male Syrian hamster; [3]): more than 2 weeks
- time to maximal effect on LDL-C (male Syrian hamster; [3]): ≤ 7 days
